Reference: ChEMBL document CHEMBL1201862, “PubChem BioAssay data set” (2004)
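Briefly, cells in 96-well plates were exposed to five compound concentrations for 48 h, and endpoints were estimated by linear interpolation. GI50: concentration for 50% inhibition of growth.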 Activity calls are given as the source filed them. Cut-off read from the data, not from the text of the source: active = GI50 up to about 1.1 µM and inactive = higher.

Key:
Assay in all cases: NCI anticancer screen, dose series, 48 h
SK-MEL-5 = system: SK-MEL-5
UACC-62 = system: UACC-62
HL-60 = system: HL-60
IGROV-1 = system: IGROV-1
RPMI-8226 = system: RPMI-8226
EKVX = system: EKVX
ACHN = system: ACHN
786-0 = system: 786-0
NCI-H23 = system: NCI-H23
A498 = system: A498
HT-29 = system: HT-29
SR = system: SR
HCC 2998 = system: HCC 2998

Compound	GI50 (SK-MEL-5)	GI50 (UACC-62)	GI50 (HL-60)	GI50 (IGROV-1)	GI50 (RPMI-8226)	GI50 (EKVX)	GI50 (ACHN)	GI50 (786-0)	GI50 (NCI-H23)	GI50 (A498)	GI50 (HT-29)	GI50 (SR)	GI50 (HCC 2998)
C#CCN(N=O)C(=O)ON1C(=O)CCC1=O	> 100 µM (inactive)	> 100 µM (inactive)	> 100 µM (inactive)	> 100 µM (inactive)	> 100 µM (inactive)	> 100 µM (inactive)	> 100 µM (inactive)	> 100 µM (inactive)	> 100 µM (inactive)	> 100 µM (inactive)	> 100 µM (inactive)		
CCN(CC)CCSc1c2ccccc2nc2c(OC)ccc(OC)c12	4.66 µM (inactive)	3.77 µM (inactive)	1.73 µM (inactive)	6.32 µM (inactive)	2.23 µM (inactive)	> 56.6 µM (inactive)	5.61 µM (inactive)	4.13 µM (inactive)	14.6 µM (inactive)	13.3 µM (inactive)	4.59 µM (inactive)	1.1 µM (active)	
O=C(O)C1(C(=O)O)CC1	> 100 µM (inactive)	> 100 µM (inactive)	> 100 µM (inactive)	> 100 µM (inactive)	> 100 µM (inactive)	> 100 µM (inactive)	> 100 µM (inactive)	> 100 µM (inactive)	> 100 µM (inactive)	> 100 µM (inactive)			> 100 µM (inactive)
Cc1ccccc1C(C#N)C(=O)C(=O)Nc1nc([N+](=O)[O-])cs1 (centres undefined)	> 100 µM (inactive)	> 100 µM (inactive)	26.2 µM (inactive)	> 100 µM (inactive)		> 100 µM (inactive)	> 100 µM (inactive)	> 100 µM (inactive)	> 100 µM (inactive)	> 100 µM (inactive)	> 100 µM (inactive)		> 100 µM (inactive)
Oc1ccc(O)c(-n2cccn2)c1-n1cccn1	> 100 µM (inactive)	97.7 µM (inactive)	> 10 µM (inactive)	> 100 µM (inactive)	> 100 µM (inactive)	> 100 µM (inactive)	> 100 µM (inactive)	> 100 µM (inactive)	> 100 µM (inactive)	> 100 µM (inactive)	> 100 µM (inactive)		> 100 µM (inactive)
O=C(O)CNS(=O)(=O)c1ccc(NC(=O)c2ccccc2[N+](=O)[O-])cc1	> 100 µM (inactive)	> 100 µM (inactive)	> 100 µM (inactive)	> 100 µM (inactive)	> 100 µM (inactive)	> 100 µM (inactive)	> 100 µM (inactive)	> 100 µM (inactive)	> 100 µM (inactive)	> 100 µM (inactive)	> 100 µM (inactive)		
CC1=CCCC(OC(N)=O)C1 (centres undefined)	> 100 µM (inactive)	> 100 µM (inactive)	> 100 µM (inactive)	> 100 µM (inactive)	> 100 µM (inactive)	> 100 µM (inactive)	> 100 µM (inactive)	> 100 µM (inactive)	> 100 µM (inactive)	32.4 µM (inactive)	> 100 µM (inactive)		> 100 µM (inactive)
C=CC(C)(C)[C@@]12CC3C(=O)N[C@@H](Cc4ccccc4)C(=O)N3[C@@H]1N(C(C)=O)c1ccccc12 (some centres undefined)	37.2 µM (inactive)	> 100 µM (inactive)	30.3 µM (inactive)	> 100 µM (inactive)	43.2 µM (inactive)	96.4 µM (inactive)	63.5 µM (inactive)	> 100 µM (inactive)	> 100 µM (inactive)	> 100 µM (inactive)	62.2 µM (inactive)	> 100 µM (inactive)	
COC(=O)CCC12CCC(=O)C1[C@@H](C(=O)OC)C[C@H]2C(=O)OC (some centres undefined)	> 100 µM (inactive)	> 100 µM (inactive)	> 100 µM (inactive)	> 100 µM (inactive)	> 100 µM (inactive)	> 100 µM (inactive)	> 100 µM (inactive)	> 100 µM (inactive)	> 100 µM (inactive)	> 100 µM (inactive)	> 100 µM (inactive)		> 100 µM (inactive)
